Structures can show the parent of a compound that is named as a salt.
Assays:
[1] = AOM (Antioxygen Method) test in ethyl linoleate, time till POV 100 meq/kg; settings: 0.020 g per 100 g ethyl linoleate, aeration 2.33 cc/sec., 97.8° C.
Description: To each 100 g of ethyl linoleate was added 0.020 g of one of the test compounds indicated in Table 7 to prepare a test solution. A 20 ml portion of each test solution was exposed to the accelerated conditions of aeration of 2.33 cc/sec. at 97.8° C. in an AOM (Antioxygen Method) test and the time period till the POV (peroxide value) reached 100 meq/kg was determined.

[2] = Inhibition of linoleic acid oxidation (ferric thiocyanate absorbance at 500 mμ); settings: 0.2% by weight on linoleic acid basis, pH 9, 70° C.
Description: Inhibition of linoleic acid oxidation
A test solution (10 ml) was prepared by adding each test compound, in an amount of 0.2% by weight on the linoleic acid basis, to a borate buffer (pH 9) containing 10^-2 M sodium linoleate. A 0.2 ml portion of the test solution was heated at 70° C. for a specified period of time. After heating, 4.7 ml of 75% ethanol and 0.1 ml of 30% ammonium thiocyanate were added to said test solution, and the mixture was stirred well. Then, 0.1 ml of a ferrous chloride solution [the supernatant obtained by adding an aqueous ferrous sulfate solution (0.6 g/50 ml) and 10 ml of concentrated hydrochloric acid to an aqueous barium chloride solution (0.5 g/50 ml), followed by adequate stirring and standing for a while] was added to said mixture. Exactly 3 minutes later, the resulting solution was measured for the absorbance at 500 mμ. In this way, the trivalent iron formed by the oxidative action of sodium linoleate peroxides was assayed and, based on the assay data, the test compounds were compared with respect to antioxidant activity [cf. Shokuhin Kogaku Jikkensho (Experiments in Food Engineering), vol. I, edited by the Department of Food Engineering, Faculty of Agriculture, Kyoto University, pages 634-635]. The greater the absorbance of the test solution after heating is, the greater the amount of sodium linoleate peroxides formed is.

[3] = Analgesic activity, acetic acid writhing test (mice); format: in vivo, Male ddY strain mice; settings: 100 mg/kg, s.c., male ddY mice, groups of ten
[4] = Acute toxicity (oral administration); settings: mouse, in vivo, male mice
From the text: Among the chroman compounds (I), the chroman compounds (I-2) show excellent analgesic activity. In addition, these compounds have low toxicity. […] So, the chroman compounds (I-2) can be used as an analgesic.

[5] = Analgesic activity, writhing test (rat); format: in vivo; settings: i.p., 100 mg/kg
Description: (§1) β-(2,3-Dihydro-6-hydroxy-2,5,7,8-tetramethyl-2H-benzopyranyl)alanine hydrochloride was evaluated for analgesic activity in the writhing test [cf. Koster et al., Fed. Proc., 18, 412 (1959)], local anesthetic activity in the tail pinch test [cf. Bianchi, C., Brit. J. Pharmacol., 11, 104 (1956)] and bronchodilator activity in lung perfusion [cf. Luduena, F. P., Arch. Int. Pharmacodyn., 111, 392 (1957)].

[6] = Local anesthetic activity, tail pinch test; format: in vivo, Mouse; settings: s.c., 3%
Description: as §1

[7] = system: isoprenaline-induced bronchodilation; assay: Bronchodilator activity, lung perfusion; settings: Table 8: guinea pig, in vitro, 300 μg
Description: as §1
>40% reduction in Inhibited

[8] = Japanese Laid-Open Patent Publication No. 94382/1980; cited from earlier work

Row | SMILES | Time till POV = 100 meq/kg [1] [h] | Absorbance, solution after 1 hr. of heating [2] | Absorbance, solution after 2 hrs. of heating [2] | Absorbance, solution after 3 hrs. of heating [2] | also measured
1 | Cc1c2c(c3ccccc3c1O)OC(C)(CC(O)C(=O)O)CC2 (centres unmarked) | 1.9 |  |  |  | 
2 | COc1c(O)c(C)c2c(c1OC)OC(C)(CC(N)C(=O)O)CC2 (centres unmarked) |  | 0.02 | 0.03 | 0.05 | 
3 | O=C1O[C@H]([C@@H](O)CO)C(O)=C1O [Ascorbic acid, reference compound] |  | 0.10 | 0.21 | 0.30 | 
4 | Cc1cc(O)cc2c1OC(C)(CC(O)C(=O)O)CC2 (centres unmarked) | 2.3 |  |  |  | 
5 | CC1(CC(N)C(=O)O)CCc2cc(O)ccc2O1 (centres unmarked) |  | 0.02 | 0.03 | 0.03 | 
6 | Cc1c2c(c3ccccc3c1O)OC(C)(CC(N)C(=O)O)CC2 (centres unmarked) |  | 0.02 | 0.03 | 0.05 | 
7 | CC(=O)Oc1ccccc1C(=O)O [Aspirin, reference compound] |  |  |  |  | inhibition [3]: 40.8%
8 | Cc1c(C)c2c(c(C)c1O)CCC(C)(CC(N)C(=O)O)O2 (stereo not drawn) [Example 1, β-(2,3-dihydro-6-hydroxy-2,5,7,8-tetramethyl-2H-benzopyranyl)alanine hydrochloride] |  |  |  |  | LD50 [4]: 2620 mg/kg; inhibition [3]: 96.1%; Activity observed (writhing score, criterion <50% of control group) ([5]; Rat, test 0.75 hr post-dose): 16%; inhibition of writhing ([5]; Table 8: rat): 84%; Activity observed (animals protected) ([6]; Mouse, tested at 15 min post-dose, criterion >3/5 protected): 5/5; local anesthetic activity (in words) ([6]; Table 8: mouse): demonstrated a local anesthetic activity; isoprenaline-induced bronchodilation (in words) [7]: An inhibition of isoprenaline-induced bronchodilation is also observed
9 | CCOC(=O)C(O)C1(C)CCc2c(C)c(O)c(C)c(C)c2O1 (centres unmarked) | 2.1 |  |  |  | 
10 | Cc1c(C)c2c(c(C)c1O)CCC(C)(CCC(O)C(=O)O)O2 (centres unmarked) | 2.0 |  |  |  | 
11 | Cc1c(C)c2c(c(C)c1O)CCC(C)(C(N)C(=O)O)O2 (centres unmarked) |  | 0.02 | 0.03 | 0.03 | 
12 | Cc1c(C)c2c(c(C)c1O)CCC(C)(CCCC(C)CCCC(C)CCCC(C)C)O2 (stereo not drawn) [α-Tocopherol, reference compound] | 1.4 | 0.07 | 0.19 | 0.30 | 
13 | Cc1c(C)c2c(c(C)c1OC(C)(C)COC(=O)c1cccnc1)CCC(C)(C)O2 [2-(2,2,5,7,8-pentamethyl-6-chromanyloxy)isobutyl nicotinate] |  |  |  |  | cholesterol lowering activity [8]: have cholesterol lowering activity
14 | CCOC(=O)C(N)CC1(C)CCc2c(C)c(O)c(C)c(C)c2O1 (centres unmarked) |  | 0.02 | 0.03 | 0.05 | 
15 | CCCCCCCCCCCCCCCCCCOC(=O)C(N)CC1(C)CCc2c(C)c(O)c(C)c(C)c2O1 (centres unmarked) |  | 0.03 | 0.04 | 0.07 | 
16 | Cc1cc(O)cc2c1OC(C)(CC(N)C(=O)O)CC2 (centres unmarked) |  | 0.02 | 0.03 | 0.03 | 

Row | SMILES | Time till POV = 100 meq/kg [1] [h] | Absorbance, solution after 1 hr. of heating [2] | Absorbance, solution after 2 hrs. of heating [2] | Absorbance, solution after 3 hrs. of heating [2] | also measured
17 | Cc1c(C)c2c(c(C)c1O)CCC(C)(CC(N)C(=O)O)O2 (centres unmarked) [drawing 71] |  | 0.02 | 0.03 | 0.03 | 
18 | Cc1c(C)c2c(c(C)c1O)CCC(C)(CCC(N)C(=O)O)O2 (centres unmarked) |  | 0.02 | 0.03 | 0.04 | 
19 | Cc1cc2c(c(C)c1O)CCC(C)(CC(N)C(=O)O)O2 (centres unmarked) |  | 0.02 | 0.03 | 0.04 | 
20 | O=C1OC(C(O)CO)C(O)=C1O (centres unmarked) [Sodium erithorbate, reference compound] |  | 0.11 | 0.17 | 0.18 | 
21 | Cc1c(C)c2c(c(C)c1O)CCC(C)(CC(N)CO)O2 (centres unmarked) [Example 17, 2-amino-3-[2-(2,3-dihydro-6-hydroxy-2,5,7,8-tetramethyl-2H-benzopyranyl)]-1-propanol] |  |  |  |  | inhibition [3]: 83.7%
22 | Cc1c(C)c2c(c(C)c1O)CCC(C)(CN)O2 (centres unmarked) [Example 19, (2,3-dihydro-6-hydroxy-2,5,7,8-tetramethyl-2H-benzopyranyl)methylamine hydrochloride] |  |  |  |  | inhibition [3]: 65.6%
23 | Cc1c(C)c2c(c(C)c1OC(C)(C)C(=O)OCCN(C)C)CCC(C)(C)O2 [2-(N,N-dimethylamino)ethyl 2-(2,2,5,7,8-pentamethyl-6-chromanyloxy)isobutyrate] |  |  |  |  | cholesterol lowering activity [8]: have cholesterol lowering activity
24 | Cc1c(C)c2c(c(C)c1O)CCC(C)(CC(N)C(=O)O)O2 (centres unmarked) [drawing 70] |  | 0.02 | 0.03 | 0.04 | 
25 | COc1c(O)c(C)c2c(c1OC)OC(C)(CC(O)C(=O)O)CC2 (centres unmarked) | 2.2 |  |  |  | 
26 | Cc1c(C)c2c(c(C)c1O)CCC(C)(C(O)C(=O)O)O2 (centres unmarked) | 2.3 |  |  |  | 
27 | CCOC(=O)C(O)CC1(C)CCc2c(C)c(O)c(C)c(C)c2O1 (centres unmarked) | 2.3 |  |  |  | 
28 | CC1(CC(O)C(=O)O)CCc2cc(O)ccc2O1 (centres unmarked) | 2.2 |  |  |  | 
29 | Cc1c(C)c2c(c(C)c1O)CCC(C)(CC(O)C(=O)O)O2 (centres unmarked) | 2.4 |  |  |  | 
30 | COC(=O)C(O)CCC1(C)CCc2c(C)c(O)c(C)c(C)c2O1 (centres unmarked) | 2.1 |  |  |  | 
31 | Cc1c(C)c2c(c(C)c1O)CCC(C)(CC(N)C(=O)O)O2 (centres unmarked) [drawing 62] |  | 0.02 | 0.03 | 0.03 | 
